Measurements published in paper PMC10154249, “Unique progerin C-terminal peptide ameliorates Hutchinson–Gilford progeria syndrome phenotype by rescuing BUBR1” (Nature Aging, 2023).

How the values were obtained:
BUBR1 mRNA = BUBR1 mRNA stability assay with Actinomycin D; type: cell-based, human; conditions: HGADFN003 cells, UPCP together with Act D
Description: RNA preparation was performed as described. Total RNA was extracted using Trizol reagent (TaKaRa) following the manufacturer’s instructions. cDNA was generated with M-MLV reverse transcriptase (Promega, catalog no. M170B). Reverse transcription with PCR (RT-PCR) was performed with SYBR Green Real-Time PCR Master Mix (TaKaRa). RT-PCR was carried out on a QuantStudio 3 Real-Time-PCR Instrument (ABI). Data were analyzed and further processed in QuantStuido Design and Analysis Software and GraphPad Prism v.7. Fold change in gene expression over control samples was calculated using the 2^–ΔΔCt method, where β-actin Ct values were used as an internal control. The primer sequences for PCR, synthesized by Comate Bioscience, were as follows: […]

PTBP1 = biological target: T1, PTBP1 (Homo sapiens, UniProt P26599); test: Microscale thermophoresis (MST) of UPCP and PTBP1; type: binding; conditions: Fig. 4l
T1 construct: made in house
T1 sequence (P26599 whole entry): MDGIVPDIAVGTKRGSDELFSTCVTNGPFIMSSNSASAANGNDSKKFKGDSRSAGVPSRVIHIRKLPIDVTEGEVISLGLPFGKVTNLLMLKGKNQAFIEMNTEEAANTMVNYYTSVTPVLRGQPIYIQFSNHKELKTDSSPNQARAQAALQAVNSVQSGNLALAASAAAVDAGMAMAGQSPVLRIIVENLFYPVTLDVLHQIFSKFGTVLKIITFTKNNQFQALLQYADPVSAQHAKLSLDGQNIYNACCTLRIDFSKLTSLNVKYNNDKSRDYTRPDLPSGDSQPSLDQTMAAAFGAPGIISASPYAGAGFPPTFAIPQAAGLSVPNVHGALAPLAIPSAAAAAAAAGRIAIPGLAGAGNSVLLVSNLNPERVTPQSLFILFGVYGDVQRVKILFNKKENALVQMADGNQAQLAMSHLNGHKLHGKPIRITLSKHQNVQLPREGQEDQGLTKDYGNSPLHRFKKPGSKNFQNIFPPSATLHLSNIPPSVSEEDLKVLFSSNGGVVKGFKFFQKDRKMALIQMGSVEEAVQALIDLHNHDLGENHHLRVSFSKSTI
Description: Cells were harvested and lysed in buffer A mixed with protease inhibitor cocktail tablet (Roche) after 48 h. […] The beads were washed three times using 1× Tris saline buffer (50 mM Tris-HCl (pH 7.4) and 150 mM NaCl)) for 8 min each. The bound proteins BUBR1 or PTBP1 were eluted with 3×Flag peptide (ApexBio) for 2 h at 4 °C. Finally, BUBR1 or PTBP1 was concentrated and recovered by using the Centrifugal Filters (Amicon Ultra).
His-UPCP was eluted with Imidazole eluent for 2 h at 4 °C and concentrated and recovered by using centrifugal filters (Amicon Ultra). Flag-BUBR1 or PTBP1 was purified as described in Affinity purification of Flag-tagged protein. The purified protein was diluted with 0.05% Tween-20 in PBS in to an appropriate concentration (His-UPCP: 50 nM, Flag-BUBR1: 25 μM, Flag-PTBP1: 45 μM). Then, His-UPCP was labeled with RED-Tris-NAT according to the manufacturer’s instructions (NanoTemper, MO-L018). Flag-BUBR1 or Flag-PTBP1 was diluted by 16 concentration gradients in turn and mixed with labeled protein (His-UPCP). The capillaries (MST NT115 premium) were loaded and the samples measured on the instrument (NanoTemper Monolith NT.115). Data were analyzed by MO.AffinityAnalysis and curves were drawn using Origin 2019.

BUBR1–PTBP1 binding = test: CoIP of PTBP1 and BUBR1 in HEK-293T cells; type: cell-based; conditions: UPCP 18 μM, 48 h
Description: Detailed descriptions of CoIP were described previously[55],[56]. Cells were harvested and washed three times in cold PBS, then lysed in CoIP buffer (25 mM Tris-HCl (pH 7.5), 150 mM KCl, 5 mM EDTA, and 0.5% NP-40) plus protease inhibitor cocktail tablet (Roche). Incubate on ice and shock lysates on the vortex shaker 15 times for 30 s each. Microcentrifuge in 12,000g for 15 min at 4 °C, collect the supernatant, and incubate with 3 μg primary antibodies with gentle shaking overnight at 4 °C, followed by adding 20–40 μl Pure Proteome Protein A/G Mix Magnetic Beads (Millipore, catalog no. […]02) for 3 h. Wash the beads three times with 1 ml CoIP buffer for 8 min each, resuspend in 50 μl 1× loading buffer, and incubate at 100 °C for 8 min. Throw beads away and analyze by immunoblotting.

[1] = tested on: p53, IL-6 and p21 in HGADFN003 cells; test: Western blot of p53, IL-6 and p21 in HGADFN003 cells; type: cell-based, human
Description: Western blot was performed as previously described. Cells were lysed in 1× Laemmli sample buffer after washing twice in cold PBS without calcium and magnesium. Protein concentrations were determined using the bicinchoninic acid (BCA) protein assay. Protein lysates were subjected to SDS–PAGE, transferred to 0.45-μm pore size hydrophobic PVDF transfer membrane (Merck Millipore), detected with the appropriate primary antibodies coupled with horseradish peroxidase-conjugated corresponding secondary antibodies, and visualized using enhanced chemiluminescence ECL reagent (GE Healthcare). The Tanon 5500 high-definition low-illumination CCD system (Tanon FLI Capture v.1.02) was used to capture chemiluminescent signals.

IMR90-progerin cells = test: 53BP1 foci in IMR90-progerin cells; type: cell-based, human; conditions: IMR90-Flag-progerin+UPCP
Description: Immunofluorescence was performed as described previously. Cells were plated on cover slips in 12-well plates, left overnight before the treatment. Cells were fixed in 1% formaldehyde in culture medium for 10 min at 37 °C and permeabilized with 0.2% Triton X-100 in PBS for 10 min at room temperature. Cells were washed twice in PBS and blocked for 1 h with 5% BSA in PBS and then incubated with primary antibodies at 4 °C overnight, washed three times in PBS and incubated with secondary antibodies for 1 h at room temperature. Cell nuclei were counterstained with a 500 nM concentration of 4,6-diamidino-2-phenylindole (DAPI) (Sigma). Images were acquired by a fluorescence microscope (OLYMPUS FV-1000, Carl Zeiss LSM880 or Leica DMi8) and analyzed with software NIS-Elements AR v.5.0.1 (Nikon), FLUOVIEW v.4.2b (OLYMPUS), ZEN v.2.3 SP1 (Carl Zeiss) and Leica Application Suite X v.3.6.0.24 (Leica). Cells were quantified by investigators who were blinded to the identity of the analyzed cell.

BUBR1 promoter = test: Luciferase assay of BUBR1 promoter in HEK-293T cells; type: cell-based; conditions: for Relative luciferase activity of BUBR1 promoter (UPCP/Mock): Fig. 4b, HEK293T, Mock = 1, P=0.684
Description: The experiments were performed as described previously. The BUBR1 (–1,200 to +100) promoter or the DNA fragment of BUBR1 mRNA 3′-UTR was inserted into the pGL4.20 vector. Cells were plated in 24-well plates. After 24 h, cells were cotransfected with 200 ng of the indicated firefly luciferase reporter plasmid and 50 ng of Renilla luciferase normalization control plasmid using PEI. At 48 h after transfection, cell lysates were collected to measure luciferase activity using the Dual-Luciferase Reporter Assay System (Promega, catalog no. E1910) according to the manufacturer’s instructions. Luciferase reporter assay was carried out on an TD-20/20 Turner Designs luminometer, data were analyzed and further processed in Microsoft Excel and GraphPad Prism v.7.

**Q.** “H-YGRKKRRQRRRYNLRSRTVLCGTCGQPADKASASGSGAQSPQNCSIM-OH (cysteines drawn unpaired) [UPCP, unique progerin C-terminal peptide]” was tested. Which “BUBR1 mRNA level with Act D” value (BUBR1 mRNA) did it give?
**A.** mRNA levels of BUBR1 were significantly increased

**Q.** And the “Dose Response Curve, Response” value (PTBP1; Dose 5.625e-6, Err-Value 0.11619)?
**A.** 926.063

**Q.** And the “Dose Response Curve, Response” value (PTBP1; Dose 1.125e-5, Err-Value 0.242742)?
**A.** 928.882

**Q.** And the “Dose Response Curve, Response” value (PTBP1; Dose 2.25e-5, Err-Value 0.492149)?
**A.** 930.614

**Q.** And the “Dose Response Curve, Response” value (PTBP1; Dose 1.10E-08, Err-Value 0.170403)?
**A.** 918.746

**Q.** And the “Dose Response Curve, Response” value (PTBP1; Dose 1.37E-09, Err-Value 0.46814)?
**A.** 919.158

**Q.** And the “Dose Response Curve, Response” value (PTBP1; Dose 1.41E-06, Err-Value 0.643872)?
**A.** 921.756

**Q.** And the “Dose Response Curve, Response” value (PTBP1; Dose 1.76E-07, Err-Value 0.140462)?
**A.** 919.37

**Q.** What about the “Dose Response Curve, Response” value (PTBP1; Dose 2.20E-08, Err-Value 0.425445) of the same substance?
**A.** 918.898

**Q.** What about the “Dose Response Curve, Response” value (PTBP1; Dose 2.75E-09, Err-Value 0.242938) of the same substance?
**A.** 919.038

**Q.** What about the “Dose Response Curve, Response” value (PTBP1; Dose 2.81E-06, Err-Value 0.290637) of the same substance?
**A.** 923.469

**Q.** What about the “Dose Response Curve, Response” value (PTBP1; Dose 3.52E-07, Err-Value 0.0904303) of the same substance?
**A.** 919.901

**Q.** And the “Dose Response Curve, Response” value (PTBP1; Dose 4.39E-08, Err-Value 0.556308)?
**A.** 918.749

**Q.** And the “Dose Response Curve, Response” value (PTBP1; Dose 5.49E-09, Err-Value 0.120596)?
**A.** 918.787

**Q.** What about the “Dose Response Curve, Response” value (PTBP1; Dose 6.87E-10, Err-Value 0.420573) of the same substance?
**A.** 919.333

**Q.** What about the “Dose Response Curve, Response” value (PTBP1; Dose 7.03E-07, Err-Value 0.21429) of the same substance?
**A.** 920.338

**Q.** What about the “Dose Response Curve, Response” value (PTBP1; Dose 8.79E-08, Err-Value 0.322491) of the same substance?
**A.** 918.54

**Q.** What about the “binding of BUBR1 to PTBP1” value (BUBR1–PTBP1 binding) of the same substance?
**A.** did not block the binding of BUBR1 to other proteins such as PTBP1

**Q.** And the “level of p53, IL-6 and p21” value [1]?
**A.** decreased level of p53, IL-6 and p21

**Q.** And the “53BP1 foci per cell, n>10” value (IMR90-progerin cells; replicate 1)?
**A.** 54%

**Q.** What about the “53BP1 foci per cell, n≤10” value (IMR90-progerin cells; replicate 1) of the same substance?
**A.** 46%

**Q.** What about the “53BP1 foci per cell, n>10” value (IMR90-progerin cells; replicate 2) of the same substance?
**A.** 43%

**Q.** What about the “53BP1 foci per cell, n≤10” value (IMR90-progerin cells; replicate 2) of the same substance?
**A.** 57%

**Q.** And the “53BP1 foci per cell, n>10” value (IMR90-progerin cells; replicate 3)?
**A.** 59%

**Q.** What about the “53BP1 foci per cell, n≤10” value (IMR90-progerin cells; replicate 3) of the same substance?
**A.** 41%

**Q.** What about the “Relative luciferase activity of BUBR1 promoter (UPCP/Mock)” value (BUBR1 promoter; replicate 1) of the same substance?
**A.** 0.9458

**Q.** What about the “Relative luciferase activity of BUBR1 promoter (UPCP/Mock)” value (BUBR1 promoter; replicate 2) of the same substance?
**A.** 1.36

**Q.** What about the “Relative luciferase activity of BUBR1 promoter (UPCP/Mock)” value (BUBR1 promoter; replicate 3) of the same substance?
**A.** 0.8889

**Q.** What about the “luciferase activity of the BUBR1 promoter” value (BUBR1 promoter; HEK-293T cells) of the same substance?
**A.** failed to enhance luciferase activity of the BUBR1 promoter
